{
  "source": "patent US20210369595A1",
  "about": "“Cosmetic composition comprising an aqueous extract of rose fruit” (L V M H RECHERCHE, priority 2018, published 2021)",
  "key": {"Collagen 3 (COL3A1)": {"system": "Collagen 3 (COL3A1)", "test": "TLDA gene expression in NHF: COL3A1", "type": "cell-based, human", "procedure": "(§1) The cell culture medium is removed and 250 μL of RLT lysis buffer (provided in the Nucleospin RNA trace kit, Macherey-Nagel) is added. The cells are scraped with a Cell Scraper and then the cell lysate is recovered in a 1.2 mL deepwell (provided in the Nucleospin RNA kit). The total RNAs are extracted according to the defined protocols.\n(§2) The total RNA solutions obtained are assayed, and their quality checked, using a microplate reader, the spectrostarNANO (BMG Labtech) coupled to the MicrolabSTAR. This apparatus is connected to the computer controlling the Robotics platform and has the specific software for the analysis of the results (MARS software). The technique requires a 384-well microplate (LoBase), a positive control (RNA 250, AM7155, Thermofisher) to validate the pipetting performed by the robot as well as the values generated by the spectrostarNANO reader. • Synthesis of complementary DNA […]\n(§3) Real-time quantitative PCR can be exploited if its efficiency is between 90% and 110%. For each sample, the number of cycles at which the signal appears is determined by the SDS 2.3 software. […]\n(§4) In the TLDA RT-PCR method, quantification is performed using the comparative method of ΔΔCt. The relative quantification (RQ) values obtained correspond to the amplitude level (x times more or less than the control) of the expression compared with our control, here the non-irradiated. […]"}, "Collagen 5 (COL5A1)": {"system": "Collagen 5 (COL5A1)", "test": "TLDA gene expression in NHF: COL5A1", "type": "cell-based, human", "procedure": "as §1, §2, §3, §4"}, "Fibrillin 1 (FBN1)": {"system": "Fibrillin 1 (FBN1)", "test": "TLDA gene expression in NHF: FBN1", "type": "cell-based, human", "conditions": "Vit C 50 μg/mL (positive control), control = 1", "procedure": "as §1, §2, §3, §4"}, "[1]": {"system": "Procollagen C endopeptidase enhancer (PCOLCE)", "test": "TLDA gene expression in NHF: PCOLCE", "type": "cell-based, human", "conditions": "Vit C 50 μg/mL (positive control), control = 1", "procedure": "as §1, §2, §3, §4"}, "[2]": {"system": "Matrix Metalloproteinase 3 (MMP3)", "test": "TLDA gene expression in NHF: MMP3", "type": "cell-based, human", "conditions": "Vit C 50 μg/mL (positive control), control = 1", "procedure": "as §1, §2, §3, §4"}, "Emilin 1 (Emilin1)": {"system": "Emilin 1 (Emilin1)", "test": "TLDA gene expression in NHF: Emilin1", "type": "cell-based, human", "procedure": "as §1, §2, §3, §4"}, "Elastin (ELN)": {"system": "Elastin (ELN)", "test": "TLDA gene expression in NHF: ELN", "type": "cell-based, human", "conditions": "Vit C 50 μg/mL (positive control), control = 1", "procedure": "as §1, §2, §3, §4"}, "Collagen 1 (COL1A1)": {"system": "Collagen 1 (COL1A1)", "test": "TLDA gene expression in normal human fibroblasts (NHF): COL1A1", "type": "cell-based", "procedure": "as §1, §2, §3, §4"}, "[3]": {"system": "Lysyl oxidase like 1 (LOXL1)", "test": "TLDA gene expression in NHF: LOXL1", "type": "cell-based, human", "conditions": "Vit C 50 μg/mL (positive control), control = 1", "procedure": "as §1, §2, §3, §4"}, "[4]": {"conditions": "Vit C 50 μg/mL (positive control), control = 1"}},
  "data": [
    {"smiles": "O=C1O[C@H]([C@@H](O)CO)C(O)=C1O", "note": "[Vit C]", "values": [
      {"measurement": "COL3A1 expression, RQ", "setting": "Collagen 3 (COL3A1); [4]", "value": 2.599},
      {"measurement": "increase of Collagen 3 expression", "setting": "Collagen 3 (COL3A1); Vit C (50 μg/mL)", "value": "+160%"},
      {"measurement": "COL5A1 expression, RQ", "setting": "Collagen 5 (COL5A1); [4]", "value": 1.911},
      {"measurement": "increase of Collagen 5 expression", "setting": "Collagen 5 (COL5A1); Vit C (50 μg/mL)", "value": "+91%"},
      {"measurement": "FBN1 expression, RQ", "setting": "Fibrillin 1 (FBN1)", "value": 0.989},
      {"measurement": "PCOLCE expression, RQ", "setting": "[1]", "value": 1.156},
      {"measurement": "MMP3 expression, RQ", "setting": "[2]", "value": 1.205},
      {"measurement": "Emilin1 expression, RQ", "setting": "Emilin 1 (Emilin1); [4]", "value": 2.509},
      {"measurement": "increase of Emilin 1 expression", "setting": "Emilin 1 (Emilin1); Vit C (50 μg/mL)", "value": "+151%"},
      {"measurement": "ELN expression, RQ", "setting": "Elastin (ELN)", "value": 1.016},
      {"measurement": "COL1A1 expression, RQ", "setting": "Collagen 1 (COL1A1); [4]", "value": 3.471},
      {"measurement": "increase of Collagen 1 expression", "setting": "Collagen 1 (COL1A1); Vit C (50 μg/mL)", "value": "+247%"},
      {"measurement": "LOXL1 expression, RQ", "setting": "[3]", "value": 1.202}
    ]}
  ]
}
